Source: patent publication US20230159587A1, “PHARMACEUTICAL COMPOSITION FOR PREVENTING OR TREATING CANCER” (L-BASE CO., LTD., priority 2021, published 2023)
Residues, ends and D or L forms follow the SMILES beside them. No end group written: not given here. *: point of attachment. Benzoyl(3-Ph) = O=C(c1cccc(-c2ccccc2)c1)*; Benzoyl(4-Ph) = O=C(c1ccc(-c2ccccc2)cc1)*; Benzoyl(2-Ph) = O=C(c1ccccc1-c1ccccc1)*; Benzoyl(4-OMe) = COc1ccc(C(=O)*)cc1; 2Naphthoyl = O=C(c1ccc2ccccc2c1)*; Bz = O=C(c1ccccc1)*

Experiments:
[1] = tested on: lung cancer cell line H1299; test: CTG assay, cell viability suppression in lung cancer cell line H1299; type: cell-based; details: H1299, 100 μM, 48 hours
Experimental: (§1) After 48 hours, a CellTiter-Glo® (Promega Co., USA) reagent was mixed in the same amount as the cell culture medium and allowed to react in an orbital shaker for 2 minutes. After reaction at room temperature for 10 minutes, the luminescence signal was measured using a luminometer (GloMax®, Promega).

[2] = tested on: lung cancer cell line H820 tumors; test: Tumor growth suppression, nude mice inoculated with lung cancer cell line H820; type: in vivo; details: H820 in nude mice, 10 mpk, tail vein, 5 times at 3-day intervals and 5 times at 2-day intervals
Experimental: 200 μl of H820 cells were inoculated once by subcutaneous injection into the flanks of mice at a concentration of 5×10^6 cells/mouse at 1:1 with Matrigel. After it was confirmed that the volume of a tumor mass formed after the inoculation reached 70 to 130 mm^3, random group separation was performed. […]

[3] = tested on: colorectal cancer cell line HT29; test: Cell proliferation suppression in colorectal cancer cell line HT29; type: cell-based; details: HT29, 50 μM, 72 hours
Experimental: as §1
(§2) After 72 hours, 10 μl of a CellTiter-96® (Promega Co., USA) reagent was added to each well and allowed to react at 5% CO2 and 37° C. After 3 hours, absorbance was measured at 490 nm using a spectrophotometer (SPECTROstar^Nano, BMG).

[4] = tested on: blood cancer cell line Jurkat clone E6-1; test: MTT assay, proliferation suppression in blood cancer cell line Jurkat clone E6-1; type: cell-based; details: Jurkat clone E6-1, 10 μM, 48 hours
Experimental: as §2
As the blood cancer cell line, Jurkat clone E6-1 was used.
Jurkat clone E6-1 was treated with 4-PhPh-[…], Ac-[…], 3-PhPh-[…], 4-MeOPh-[…], 2-PhPh-[…], Ph-[…], and Naphthyl-[…] at a concentration of 10 μM, respectively, and cell proliferation suppression effects were compared after 48 hours.

[5] = tested on: breast cancer cell line HCC1937; test: MTT assay, proliferation suppression in breast cancer cell line HCC1937; type: cell-based; details: HCC1937, 100 μM, 72 hours
Experimental: as §2
HCC1937 was used as the breast cancer cell line.
The HCC1937 cell line was treated with Ac-[…], 3-PhPh-[…], 4-MeOPh-[…], 2-PhPh-[…], Ph-[…], and Naphthyl-[…] at a concentration of 100 μM, respectively, and cell proliferation suppression effects were compared after 72 hours.

[6] = tested on: pancreatic cancer cell line CFPAC-1; test: MTT assay, cell viability suppression in pancreatic cancer cell line CFPAC-1; type: cell-based; details: CFPAC-1, 10 μM, 72 hours
Experimental: as §2

[7] = tested on: CT26 cells induced to express CAGE gene; test: Tumor growth suppression, mice inoculated with CT26 cells induced to express CAGE gene; type: in vivo; details: CT26 expressing CAGE, 10 mpk tail vein, 7 times at 2-day intervals; for tumor growth suppression compared to the AQTGTGKT administration group: day 14; for tumor volume on day 14 (average): day after 7th administration
Experimental: (§3) 200 μl of CT26 cells, which were induced to express CAGE gene, were inoculated once by subcutaneous injection into the flanks of mice at a concentration of 1×10^6 cells/mouse. After it was confirmed that the volume of a tumor mass formed after the inoculation reached 70 mm^3, random group separation was performed. A test material was injected to the tail vein 7 times at 2-day intervals at a concentration of 10 mpk, and the start date of administration was set as day 1. The tumor volume was calculated twice a week by measuring the width and length and at the same time, the mouse body weight was measured.

in vitro = details: human
[8] = Stability in human blood (residual amount over time)
[9] = tested on: breast cancer cell line HCC1806 tumors; test: Tumor growth suppression, mice inoculated with breast cancer cell line HCC1806; type: in vivo, immunodeficient mice; details: HCC1806, 10 mpk tail vein, 7 times at 2-day intervals; for tumor volume on day 15 (average): 2 days after last administration; for tumor growth suppression compared to the tumor volume of the AQTGTGKT group: day 15
Experimental: as §3, with “a breast cancer cell line, HCC1806” for “CT26”, “cells,” for “cells, which were induced to express CAGE gene,”, “5×10^6” for “1×10^6”, “70 to 130” for “70”

[10] = tested on: lung cancer cell line H1975; test: CTG assay, cell viability suppression in lung cancer cell line H1975; type: cell-based; details: H1975, 10 μM, 72 hours
Experimental: as §1

[11] = tested on: lung cancer cell line H820; test: Cell viability suppression in lung cancer (papillary adenocarcinoma) cell line H820; type: cell-based; details: H820, 10 μM, 72 hours
Experimental: as §1, §2

[12] = tested on: H1975 lung cancer cells tumors; test: Tumor growth suppression, nude mice inoculated with H1975 lung cancer cells; type: in vivo; details: H1975 in nude mice, 10 mpk for 14 days
Experimental: 150 μl of H1975 cells were inoculated once by subcutaneous injection into the flanks of mice at a concentration of 4×10^6 cells/mouse. After it was confirmed that the volume of a tumor mass formed after the inoculation reached 70 to 130 mm^3, random group separation was performed. A test material was injected to the tail vein 5 times at 3-day intervals and 5 times at 2-day intervals.

[13] = tested on: breast cancer cell line MDA-MB-231; test: CTG assay, activity of breast cancer cells MDA-MB-231 (amount of ATP); type: cell-based; details: MDA-MB-231, 100 μM, 48 hours
Experimental: as §1

half-life at 10 μM (in vitro) [min] | Compound | cell viability suppression effect compared to the control (AQTGTGKT) [1] | tumor growth suppression effect compared to the control (AQTGTGKT) [2] | cell proliferation suppression effect compared to the control (AQTGTGKT) [3] | suppression of proliferation of cells compared to the control (AQTGTGKT) [4] | suppression of proliferation of cells compared to the control (AQTGTGKT) [5] | cell viability suppression effect compared to the control (AQTGTGKT) [6] | tumor growth suppression compared to the AQTGTGKT administration group [7] | tumor volume on day 14 (average) [7] [mm^3] | half-life at 10 μM [8] [min] | tumor volume on day 15 (average) [9] [mm^3] | tumor growth suppression compared to the tumor volume of the AQTGTGKT group [9] | cell viability suppression effect compared to the control (AQTGTGKT) [10] | cell viability suppression effect compared to the control (AQTGTGKT) [11] | tumor growth reduction compared to the control (AQTGTGKT) [12] | reduction of activity of cells compared to the control (AQTGTGKT) [13]
47 to 105 | C[C@H](NC(=O)c1ccc2ccccc2c1)C(=O)N[C@@H](CCC(N)=O)C(=O)N[C@H](C(=O)NCC(=O)N[C@H](C(=O)NCC(=O)N[C@@H](CCCCN)C(=O)N[C@H](C(=O)O)[C@@H](C)O)[C@@H](C)O)[C@@H](C)O (2Naphthoyl-AQTGTGKT-OH) | 14% | 26% | 58% | ~10.4% | ~9.5% | 3% | about 62.04% | 880.35 |  |  |  |  |  |  | 
 | C[C@H](NC(=O)c1ccccc1)C(=O)N[C@@H](CCC(N)=O)C(=O)N[C@H](C(=O)NCC(=O)N[C@H](C(=O)NCC(=O)N[C@@H](CCCCN)C(=O)N[C@H](C(=O)O)[C@@H](C)O)[C@@H](C)O)[C@@H](C)O (Bz-AQTGTGKT-OH) | 18% | 20% | 40% | ~10.2% | ~13.6% | 3% |  |  | 47 to 105 | 1133.80 | ~39.82% |  |  |  | 
47 to 105 | C[C@H](NC(=O)c1ccccc1-c1ccccc1)C(=O)N[C@@H](CCC(N)=O)C(=O)N[C@H](C(=O)NCC(=O)N[C@H](C(=O)NCC(=O)N[C@@H](CCCCN)C(=O)N[C@H](C(=O)O)[C@@H](C)O)[C@@H](C)O)[C@@H](C)O ({Benzoyl(2-Ph)}-AQTGTGKT-OH) | 20% | 27% | 7% | ~6.7% | ~15.9% |  |  |  |  |  |  | 3% |  |  | 
47 to 105 | C[C@H](NC(=O)c1cccc(-c2ccccc2)c1)C(=O)N[C@@H](CCC(N)=O)C(=O)N[C@H](C(=O)NCC(=O)N[C@H](C(=O)NCC(=O)N[C@@H](CCCCN)C(=O)N[C@H](C(=O)O)[C@@H](C)O)[C@@H](C)O)[C@@H](C)O ({Benzoyl(3-Ph)}-AQTGTGKT-OH) | 15% | about 16.5% | 59% | ~6.4% | ~17.1% | 2% | about 65.79% | 880.35 |  | 944.70 | about 49.86% | 33% | about 12% | about 16.5% | 
47 to 105 | COc1ccc(C(=O)N[C@@H](C)C(=O)N[C@@H](CCC(N)=O)C(=O)N[C@H](C(=O)NCC(=O)N[C@H](C(=O)NCC(=O)N[C@@H](CCCCN)C(=O)N[C@H](C(=O)O)[C@@H](C)O)[C@@H](C)O)[C@@H](C)O)cc1 ({Benzoyl(4-OMe)}-AQTGTGKT-OH) | 12% |  | 48% | ~4% | ~14.3% | 6% |  |  |  | 812.69 | ~56.86% | 4% | 10% |  | 
47 to 105 | C[C@H](NC(=O)c1ccc(-c2ccccc2)cc1)C(=O)N[C@@H](CCC(N)=O)C(=O)N[C@H](C(=O)NCC(=O)N[C@H](C(=O)NCC(=O)N[C@@H](CCCCN)C(=O)N[C@H](C(=O)O)[C@@H](C)O)[C@@H](C)O)[C@@H](C)O ({Benzoyl(4-Ph)}-AQTGTGKT-OH) | about 10% |  | about 8% | about 4.8% |  | about 12% |  |  |  |  |  |  |  |  | about 30%
 | AQTGTGKT [alanine-glutamine-threonine-glycine-threonine-glycine-lysine-threonine, reference compound] |  |  |  |  |  |  |  | 2573.07 | < 1 | 1884.17 |  |  |  |  | 
 | Ac-AQTGTGKT | 4.2% |  | 58% | ~7.9% | about 11.1% |  |  |  |  |  |  | about 16% |  |  | 
